Source: article PMC6825221, “In silico re-engineering of a neurotransmitter to activate KCNQ potassium channels in an isoform-specific manner” (Communications Biology, 2019)

Target: T1, KCNQ3*-R242A (Homo sapiens, UniProt O43525, A315T/R242A)
T1 sequence (O43525 1-872 R242A/A315T): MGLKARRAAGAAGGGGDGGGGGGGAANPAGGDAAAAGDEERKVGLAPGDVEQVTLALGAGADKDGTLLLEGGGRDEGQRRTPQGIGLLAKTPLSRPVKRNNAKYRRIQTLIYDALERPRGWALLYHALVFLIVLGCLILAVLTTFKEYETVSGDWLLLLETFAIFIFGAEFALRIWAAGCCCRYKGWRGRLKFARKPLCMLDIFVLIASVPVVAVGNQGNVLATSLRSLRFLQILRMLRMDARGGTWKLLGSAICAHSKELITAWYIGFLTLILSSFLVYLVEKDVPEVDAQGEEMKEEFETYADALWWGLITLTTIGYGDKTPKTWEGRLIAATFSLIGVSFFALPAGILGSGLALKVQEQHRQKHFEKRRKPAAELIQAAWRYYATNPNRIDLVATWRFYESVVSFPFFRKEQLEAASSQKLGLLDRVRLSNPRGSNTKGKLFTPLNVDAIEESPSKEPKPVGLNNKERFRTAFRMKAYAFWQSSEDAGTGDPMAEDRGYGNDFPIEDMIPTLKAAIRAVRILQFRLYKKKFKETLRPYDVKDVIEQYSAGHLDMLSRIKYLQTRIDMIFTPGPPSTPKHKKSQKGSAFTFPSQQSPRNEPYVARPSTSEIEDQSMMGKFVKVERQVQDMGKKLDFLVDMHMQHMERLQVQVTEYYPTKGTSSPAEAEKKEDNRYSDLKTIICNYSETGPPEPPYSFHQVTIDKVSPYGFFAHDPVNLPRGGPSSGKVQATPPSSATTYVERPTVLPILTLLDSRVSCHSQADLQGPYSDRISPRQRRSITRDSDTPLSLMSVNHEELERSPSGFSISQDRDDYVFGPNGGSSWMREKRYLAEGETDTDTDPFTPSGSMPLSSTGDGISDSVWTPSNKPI
Assay: TEVC of homomeric KCNQ3*-R242A
Type: cell-based
Details: 100 µM
Source text: We generated cRNA transcripts encoding human KCNQ1, KCNQ2, KCNQ3, KCNQ4, KCNQ5 or GLRA1 (NM_001146040) (GenScript, Piscataway, NJ, USA) by in vitro transcription using the T7 polymerase mMessage mMachine kit (Thermo Fisher Scientific), after vector linearization, from cDNA sub-cloned into plasmids incorporating Xenopus laevis β-globin 5′ and 3′ UTRs flanking the coding region to enhance translation and cRNA stability. We quantified cRNA by spectrophotometry. We generated mutant KCNQ2 and KCNQ3 cDNAs by site-directed mutagenesis using a QuikChange kit (Stratagene, San Diego, CA) and prepared the corresponding cRNAs as above. […]
We performed TEVC at room temperature using an OC-725C amplifier (Warner Instruments, Hamden, CT) and pClamp10 software (Molecular Devices, Sunnyvale, CA) 2–5 days after cRNA injection as described in the section above. […] Currents were recorded in response to voltage pulses between −120 or −80 mV and + 40 mV at 20 mV intervals from a holding potential of −80 mV, to yield current-voltage relationships, current magnitude, and for quantifying activation rate. We analyzed data using Clampfit (Molecular Devices) and Graphpad Prism software (GraphPad, San Diego, CA, USA); values are stated as mean ± SEM. […]

SMILES: CS(=O)(=O)N(CC(=O)O)c1cccc(F)c1 [3FMSG]
- effect on nonfunctional KCNQ3*-R242A: awakened neither by 3FMSG nor retigabine
